From BindingDB's records for patent US20230322706 (Lg Chem, 2023)

molecular target: T1, Diacylglycerol O-acyltransferase 2 (Homo sapiens, UniProt Q96PD7); test: Measurement of Inhibitory Effect Against DGAT2 Enzyme Activity
T1 sequence (Q96PD7 whole entry): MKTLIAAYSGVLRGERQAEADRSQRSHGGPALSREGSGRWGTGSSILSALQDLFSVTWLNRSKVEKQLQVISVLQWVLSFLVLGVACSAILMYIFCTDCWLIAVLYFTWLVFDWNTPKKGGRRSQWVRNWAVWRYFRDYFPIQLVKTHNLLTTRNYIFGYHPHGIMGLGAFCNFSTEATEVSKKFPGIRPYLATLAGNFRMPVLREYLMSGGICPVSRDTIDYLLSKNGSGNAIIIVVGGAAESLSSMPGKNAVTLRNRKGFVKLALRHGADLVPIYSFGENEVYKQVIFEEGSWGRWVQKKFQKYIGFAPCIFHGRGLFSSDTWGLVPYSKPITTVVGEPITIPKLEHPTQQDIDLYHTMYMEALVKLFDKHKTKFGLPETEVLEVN
Description: 1. […] In order to prepare the pBacPAK9-DGAT2, which is DGAT2 expression vector, the human DGAT2 gene amplified by polymerase chain reaction (PCR) was cloned into the EcoR1 and Xho1 sites of the pBacPAK9 (clonctech) vector. The nucleotide sequence of the primers used in PCR was the forward primer 5′ […] […] and the reverse primer 5′ […]. The composition of the reaction solution was to contain 50 ng of cDNA clone (OriGene), 200 μM of dATP, dCTP, dTTP, dGTP, 200 nM of each primer, 1 unit of Tag DNA Polymerase (Toyobo), 1x PCR buffer, and the final volume was adjusted to 20 μl. The reaction conditions were denatured at 95° C. for 5 minutes, followed by 30 times of 94° C. for 20 seconds, 60° C. for 20 seconds, and 72° C. for 90 seconds, followed by further reaction at 72° C. for 7 minutes. 2. […] Recombinant human DGAT2 protein was expressed in Sf-21 cells, which are insect cells, by using the BacPack baculovirus expression system (Clontech). The brief manufacturing process is as follows. First, the pBacPAK9-DGAT2 expression vector was transfected with BacPAK6 virus DNA (Bsu36I digest) into sf21 cells using Bacfectin to prepare a recombinant DGAT2 expressing baculovirus. The thus prepared baculovirus was infected with Sf-21 cells at 10 MOI (multiplicity of infection), and after 72 hours, infected insect cells were collected and membrane proteins were isolated. […] Protein concentration was quantified by using the BCA Protein Assay Kit (Thermo Scientific). […] The next day, the amplified scintillation signal (cpm) in Topcounter (Packard) was measured to measure the degree of production of [14C]-labeled triacyl glycerol (TG) as a reaction product. The measured value when the compound was not treated was used as a positive control, and the measured value of the compound treated group was calculated as a relative % to measure the inhibition effect of the compound on TG production.

Row | Structure (SMILES) | IC50
1 | CCOC(=O)C(F)(F)c1ccc(CC(=O)Nc2cncc(-c3cncc(Oc4ccccc4OCC)c3)n2)cc1 [US20230322706, Example 6] | 120 nM
2 | CCOc1ccccc1Oc1cccc(-c2cncc(NC(=O)Cc3ccc(C(F)(F)C(=O)O)cc3)n2)c1 [US20230322706, Example 14] | 3100 nM
3 | CCOc1ccccc1Oc1cccc(-c2cncc(NC(=O)/C=C/c3ccc(C(C)(C)C(=O)O)cc3)n2)c1 [US20230322706, Example 17] | 240 nM
